Here are results for four molecules from US6217848A, “Cyanine and indocyanine dye bioconjugates for biomedical applications” (Mallinckrodt Inc., priority 1999, dated 2001).

Structures are written as SMILES.

Data set [1] concerns Prostatic Carcinoma (R3327-H). Description: In vivo fluorescence imaging of prostatic carcinoma (R3327-H) in rats. The arrangement: species or system young male Copenhagen rats. As to conditions: Dunning R3327-H. From the text:
(§1) A non-invasive in vivo fluorescence imaging apparatus was employed to assess the efficacy of contrast agents developed for tumor detection in animal models. A LaserMax Inc. laser diode of nominal wavelength 780 nm and nominal power of 40 mW was used. The detector was a Princeton Instruments model RTE/CCD-1317-K/2 CCD camera with a Rodenstock 10 mm F2 lens (stock #542.032.002.20) attached. An 830 nm interference […] (CVI Laser Corp., part # F10-830-4-2) was mounted in front of the CCD input lens such that only emitted fluorescent light from the contrast agent was imaged. Typically, an image of the animal was taken pre-injection of contrast agent. This image was subsequently subtracted (pixel by pixel) from the post injection images. However, the background subtraction was […] done once the animal had been removed from the sample area and returned at a later time for images taken several hours post injection.
The animals were anesthetized with rat cocktail (xylazine; ketamine; acepromazine 1.5: 1.5: 0.5) at 0.8 mL/kg via intramuscular injection. The area of the tumor (left flank) was shaved to expose tumor and surrounding surface area. A 21 gauge butterfly equipped with a stopcock and two syringes containing heparinized saline was placed into the later tail vein of the rat. Patency of the vein was checked prior to administration of the ICG via the butterfly apparatus. […]

Data set [2] relates to Rat Pancreatic Acinar Carcinoma (CA20948). Description: In vivo fluorescence imaging of rat pancreatic acinar carcinoma (CA20948) expressing the SST-2 receptor. The arrangement: species or system Lewis rat. As to conditions: for fluorescence in tumored rats at 45 minutes: 45 minutes post injection (FIGS. 2A-B).
Excerpt: as §1
The animals were anesthetized with rat cocktail (xylazine; ketamine; acepromazine 1.5: 1.5: 0.5) at 0.8 mL/kg via intramuscular injection. The area of the tumor (left flank) was shaved to expose tumor and surrounding surface area. A 21 gauge butterfly equipped with a stopcock and two syringes containing heparinized saline was placed into the later tail vein of the rat. Patency of the vein was checked prior to administration of the ICG via the butterfly apparatus. Each animal received 500 μL of a 0.42 mg/mL solution of ICG in water.
The imaging apparatus and the procedure used are described in Example 9. Rat pancreatic acinar carcinoma expressing the SST-2 receptor (CA20948) were induced by solid implant technique in the left flank area and palpable masses were detected 9 days post implant.
The imaging apparatus and the procedure used are described in Example 9 except that each animal received 500 μL of a 1.0 mg/mL solution of Cytate 1 solution of 25% dimethylsulfoxide in water. Rat pancreatic acinar carcinoma expressing the SST-2 receptor (CA20948) were induced by solid implant technique in the left flank area and palpable masses were detected 24 days post implant. Images were obtained at various times post injection. […] FIGS. 2A-B show a comparison of the uptake of ICG and Cytate 1 at 45 minutes in rats with the CA20948 tumor cell line.
Cytate 1 was evaluated in the CA20948 Lewis rat model. […] As a control, the organs were imaged again (FIG. 4A) and the image was compared with that of the same tissues in the uninjected rat (FIG. 4B).

The subject of data set [3] is pancreatic ductal adenocarcinoma (DSL 6A). In words: In vivo fluorescence imaging of pancreatic ductal adenocarcinoma (DSL 6A) in rats. The arrangement: species or system male Lewis rats.
Excerpt: as §1
DSL 6A tumors were induced in male Lewis rats in the left flank area by the introduction of material from a solid (donor) implant and the tumors were palpable in approximately 14 days.
The animals were anesthetized with rat cocktail (xylazine; ketamine; acepromazine 1.5: 1.5: 0.5) at 0.8 mL/kg via intramuscular injection. The area of the tumor (left flank) was shaved to expose tumor and surrounding surface area. […]

Data set [4] is described as follows: Blood clearance profile of peptide-dye conjugates monitored at the rat ear. The class given is in vivo, Sprague-Dawley or Fischer 344 rats. As to conditions: bolus injection in the lateral tail vein, 0.5 to 2.0 mL. From the text:
A laser of appropriate wavelength for excitation of the dye chromophore was directed into one end of a fiber optic bundle and the other end was positioned a few millimeters from the ear of a rat. A second fiber optic bundle was also positioned near the same ear to detect the emitted fluorescent light and the other end was directed into the optics and electronics for data collection. An interference filter (IF) in the collection optics train was used to select emitted fluorescent light of the appropriate wavelength for the dye chromophore.
Sprague-Dawley or Fischer 344 rats were used in these studies. The animals were anesthetized with urethane administered via intraperitoneal injection at a dose of 1.35 g/kg body weight. After the animals had achieved the desired plane of anesthesia, a 21 gauge butterfly with 12" tubing was placed in the lateral tail vein of each animal and flushed with heparinized saline. The animals were placed onto a heating pad and kept warm throughout the entire study. The lobe of the left ear was affixed to a glass microscope slide to reduce movement and vibration.
Incident laser light delivered from the fiber optic was centered on the affixed ear. Data acquisition was then initiated, and a background reading of fluorescence was obtained prior to administration of the test agent. For Cytates 1 or 2, the peptide-dye conjugate was administered to the animal through a bolus injection in the lateral tail vein, typically of 0.5 to 2.0 mL.
This procedure was repeated with several dye-peptide conjugates in normal and tumored rats and representative profiles are shown in FIGS. 6 to 10.

For data set [5], the system named is Rat Pancreatic Acinar Carcinoma (CA20948). In words: Imaging of individual organs removed from rat with CA20948 tumor. The class given is in vivo. As to conditions: about 24 hours after injection (FIG. 5). The procedure: FIG. 5 is an image of individual organs taken from a rat with pancreatic acinar carcinoma (CA20948) about 24 hours after injection with Cytate 1.
as §1
Individual organs were removed and imaged. […] This correlates very nicely with radiolabeled Octreotate in the same model system (see de Jong et al., 1998).

In data set [6] the test system is somatostatin (SST-2) receptors. As to conditions: cited from earlier work.

`CC1(C)C(/C=C/C=C/C=C/C=C2\N(CCCCS(=O)(=O)O)c3ccc4ccccc4c3C2(C)C)=[N+](CCCCS(=O)(=O)[O-])c2ccc3ccccc3c21` [ICG, indocyanine green]: the “perfusion of the agent into the tumor” value is listed as “slow perfusion of the agent over time into the tumor” in data set [1]; “only a slight but transient perfusion that was absent after only 30 minutes post injection” in data set [2] (CA20948, 30 minutes post injection); “slow perfusion of the agent over time into the tumor” in data set [3] (500 μL of 0.42 mg/mL in water). Moreover, the reasonable images obtained entry in data set [1] and in data set [3] was “reasonable images were obtained” in each case. Also, the “fluorescence in tumored rats at 45 minutes” value in data set [2] (CA20948) was “mostly cleared”. Also, the non-specific localization entry in data set [2] (CA20948 compared to the other two tumor lines) is reported as “no non-specific localization”.
Regarding `C[C@@H](O)[C@H](NC(=O)[C@@H]1CSSC[C@H](NC(=O)[C@@H](Cc2ccccc2)NC(=O)CCN2C(=CC=CC=CC=CC3=[N+](CCC(=O)N[C@H](Cc4ccccc4)C(=O)N[C@H]4CSSC[C@@H](C(=O)N[C@H](C(=O)O)[C@@H](C)O)NC(=O)[C@H]([C@@H](C)O)NC(=O)[C@H](CCCCN)NC(=O)[C@@H](Cc5c[nH]c6ccccc56)NC(=O)[C@H](Cc5ccc(O)cc5)NC4=O)c4ccc5ccccc5c4C3(C)C)C(C)(C)c3c2ccc2ccccc32)C(=O)N[C@@H](Cc2ccc(O)cc2)C(=O)N[C@H](Cc2c[nH]c3ccccc23)C(=O)N[C@@H](CCCCN)C(=O)N[C@@H]([C@@H](C)O)C(=O)N1)C(=O)O` [Cytate 2, bisOctreotate-Bisethylcarboxymethylindocyanine dye], in data set [4], the “decay of fluorescence signal (blood clearance)” value is “decayed as a function of time as the conjugate cleared from the bloodstream” and the “fluorescence signal after bolus injection (rise)” value is “rapidly increased to a peak value”.
On to `C[C@@H](O)[C@H](NC(=O)[C@@H]1CSSC[C@H](NC(=O)[C@@H](Cc2ccccc2)NC(=O)CC[N+]2=C(/C=C/C=C/C=C/C=C3/N(CCC(=O)O)c4ccc5ccccc5c4C3(C)C)C(C)(C)c3c2ccc2ccccc32)C(=O)N[C@@H](Cc2ccc(O)cc2)C(=O)N[C@H](Cc2c[nH]c3ccccc23)C(=O)N[C@@H](CCCCN)C(=O)N[C@@H]([C@@H](C)O)C(=O)N1)C(=O)O` [Cytate 1, monoOctreotate-Bisethylcarboxymethylindocyanine dye], for which, in data set [4], the “decay of fluorescence signal (blood clearance)” value is “decayed as a function of time as the conjugate cleared from the bloodstream” and the “fluorescence signal after bolus injection (rise)” value is given as “rapidly increased to a peak value”. Moreover, in data set [5], the “uptake in heart, muscle, spleen and liver” value is recorded as “significantly less uptake”; the “uptake in pancreas, adrenals and tumor tissue” value is given as “High uptake”. Moreover, the “uptake into the tumor” value in data set [2] (CA20948, 2 minutes post injection, 500 μL of 1.0 mg/mL in 25% dimethylsulfoxide in water) is “Uptake into the tumor was seen at 2 minutes”. In addition, the “fluorescence in tumored rats at 45 minutes” value in data set [2] (CA20948) was “still quite intense”. Further, the “localization in the tumor” value in data set [2] (CA20948, 90 minutes post injection (FIG. 3A)) is “strong localization”. Also, in data set [2] (CA20948, 19 hours post injection), the “specificity for the SST-2 receptors” value is on record as “showing specificity of this agent for the SST-2 receptors”. Further, the tumor visualization result in data set [2] (CA20948, 19 hours post injection (FIG. 3B)) was “tumor visualization was easily observed”. The “duration of dye fluorescence in the tumor” value in data set [2] (CA20948, post-injection) is listed as “remained intense in the tumor for several hours post-injection”.
`C[C@@H](O)[C@H](NC(=O)[C@@H]1CSSC[C@H](NC(=O)[C@H](N)Cc2ccccc2)C(=O)N[C@@H](Cc2ccc(O)cc2)C(=O)N[C@H](Cc2c[nH]c3ccccc23)C(=O)N[C@@H](CCCCN)C(=O)N[C@@H]([C@@H](C)O)C(=O)N1)C(=O)O` [Octreotate, D-Phe-Cys'-Tyr-D-Trp-Lys-Thr-Cys'-Thr]: the “targeting of somatostatin (SST-2) receptors” value in data set [6] was “known to target somatostatin (SST-2) receptors”.
